One experiment has as its target T1, 5-LOX (Homo sapiens, UniProt P09917).
T1 sequence (P09917 1-674): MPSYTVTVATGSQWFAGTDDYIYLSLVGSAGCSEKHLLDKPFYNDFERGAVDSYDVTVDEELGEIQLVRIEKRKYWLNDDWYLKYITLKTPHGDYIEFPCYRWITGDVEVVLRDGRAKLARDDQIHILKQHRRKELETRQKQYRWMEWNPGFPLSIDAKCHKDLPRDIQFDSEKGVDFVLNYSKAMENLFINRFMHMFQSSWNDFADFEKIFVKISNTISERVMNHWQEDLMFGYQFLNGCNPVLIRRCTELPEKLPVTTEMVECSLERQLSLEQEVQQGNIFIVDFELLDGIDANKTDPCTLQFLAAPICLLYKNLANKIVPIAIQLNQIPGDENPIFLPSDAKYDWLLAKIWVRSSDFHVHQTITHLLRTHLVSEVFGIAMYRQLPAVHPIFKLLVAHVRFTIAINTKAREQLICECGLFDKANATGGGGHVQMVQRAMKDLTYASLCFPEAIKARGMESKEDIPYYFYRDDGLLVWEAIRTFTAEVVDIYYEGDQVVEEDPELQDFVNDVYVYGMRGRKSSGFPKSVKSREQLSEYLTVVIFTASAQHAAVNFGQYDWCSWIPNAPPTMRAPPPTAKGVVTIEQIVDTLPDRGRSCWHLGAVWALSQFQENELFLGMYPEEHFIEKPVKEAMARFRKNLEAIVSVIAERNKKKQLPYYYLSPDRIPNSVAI
As to the kind of experiment: 5-LOX fluorescent assay (in vitro lipoxygenase inhibition). The class given is biochemical. The conditions noted are these: recombinant 5-LOX cell lysate, 20 μM AA, DHR123 fluorescence; several values in a cell = repeat determinations; read-out: IC50 (μM) values for in vitro lipoxygenase inhibition, 5-LOX. As to the method: 5-LOX FI assay Fluorescent Assay
The enzyme assay (100 μL) contained 50 mM Tris, pH 7.5, 0.1 mM EDTA, 0.3 mM CaCl2, 20 μM AA, 100 μM ATP, 1 μM DHR123, and recombinant 5-LOX cell lysate (0.5 μL/100 μL). Inhibitors (dissolved in DMSO) were plated at 1 μL into 96-well assay microplates followed by a 40 μL addition of a solution containing 5-LOX enzyme. Enzyme was pre-incubated with compounds for 15 mins. The assay was initiated by the addition of a 40 μL substrate solution containing AA and ATP, and 20 μL addition of a solution containing DHR123. […] Percent inhibition was calculated for each compound dose for IC50 curve fitting using 4 Parameter Logistic Model or Sigmoidal Dose-Response Model.

The next experiment concerns the target T2, 12-LOX (Homo sapiens, UniProt P18054).
T2 sequence (P18054 1-663): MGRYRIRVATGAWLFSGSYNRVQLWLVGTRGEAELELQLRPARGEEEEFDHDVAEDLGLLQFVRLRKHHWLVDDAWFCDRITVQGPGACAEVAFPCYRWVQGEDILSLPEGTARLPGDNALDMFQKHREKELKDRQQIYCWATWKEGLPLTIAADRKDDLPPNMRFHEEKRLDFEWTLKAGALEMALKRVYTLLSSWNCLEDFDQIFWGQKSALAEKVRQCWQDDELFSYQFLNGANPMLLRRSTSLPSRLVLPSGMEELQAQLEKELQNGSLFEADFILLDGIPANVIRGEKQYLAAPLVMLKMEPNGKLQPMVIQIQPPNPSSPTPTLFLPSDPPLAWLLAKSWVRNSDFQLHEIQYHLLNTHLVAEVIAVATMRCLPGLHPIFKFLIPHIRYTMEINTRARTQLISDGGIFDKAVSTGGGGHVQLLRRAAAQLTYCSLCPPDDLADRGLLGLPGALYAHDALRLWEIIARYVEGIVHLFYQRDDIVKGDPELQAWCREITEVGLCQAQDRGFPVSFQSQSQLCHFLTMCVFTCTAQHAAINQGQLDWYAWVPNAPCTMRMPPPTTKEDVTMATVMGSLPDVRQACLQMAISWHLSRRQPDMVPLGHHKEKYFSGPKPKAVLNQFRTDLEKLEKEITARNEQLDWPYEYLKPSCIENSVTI
As to the kind of experiment: 12-LOX fluorescent assay (in vitro lipoxygenase inhibition). Format: biochemical. As for the experimental part: 12-LOX/15-LOX Fluorescent Assay
The enzyme assay (100 ul) contained 50 mM Tris, pH 7.5, 0.05% Tween-20, 20 μM AA/LA, 1 μM DHR123, and 100 nM recombinant 12-LOX enzyme/50 nM recombinant 15-LOX enzyme. Inhibitors (dissolved in DMSO) were plated at 1 μL into 96-well assay microplates followed by a 40 μL addition of a solution containing 12-LOX/15-LOX enzyme. Enzyme was pre-incubated with compounds for 15 mins. The assay was initiated by the addition of a 40 μL substrate solution containing AA/LA, and 20μL addition of a solution containing DHR123. […] Percent inhibition was calculated for each compound dose for IC50 curve fitting using 4 Parameter Logistic Model or Sigmoidal Dose-Response Model.

Where [1] appears, read: 100 nM recombinant 12-LOX, 20 μM AA, DHR123 fluorescence, several values in a cell = repeat determinations, read-out: IC50 (μM) values for in vitro lipoxygenase inhibition, 12-LOX.

Where “and” joins values, the source holds several entries; their conditions need not be identical. Identical values can stand only once. Like-named read-outs stand apart in the source and are kept apart here.

For `Fc1ccc(CNc2ccc(NCCn3cncn3)c(-c3cccc4c3NCC4)c2)cc1` [SS20308-0211-01, N^1-(2-(1H-1,2,4-triazol-1-yl)ethyl)-N^4-(4-fluorobenzyl)-2-(indolin-7-yl)benzene-1,4-diamine], the IC50 at 5-LOX is 0.08 µM and 0.07 µM; at 12-LOX (setting [1]), 0.04 µM and 0.03 µM.
On to `c1ccc(CNc2cnc(NCCn3cncn3)c(-c3ccccc3)c2)cc1` [SS20308-0212-01, N^2-(2-(1H-1,2,4-triazol-1-yl)ethyl)-N^5-benzyl-3-phenylpyridine-2,5-diamine], for which the IC50 at 5-LOX was 2.93 µM; on 12-LOX (setting [1]), 1.61 µM.
For `c1ccc(CNc2cc(-c3ccccc3)c(NCCn3cncn3)cn2)cc1` [SS20308-0213-01, N^5-(2-(1H-1,2,4-triazol-1-yl)ethyl)-N^2-benzyl-4-phenylpyridine-2,5-diamine] the same measures were 0.61 µM and 0.08 µM.
As to `c1ccc(CNc2ccc(NCCn3cncn3)c(-c3ccccc3)n2)cc1` [SS20308-0214-01, N^5-(2-(1H-1,2,4-triazol-1-yl)ethyl)-N^2-benzyl-6-phenylpyridine-2,5-diamine], the IC50 on 5-LOX was determined as 0.16 µM; on 12-LOX (setting [1]), 0.05 µM.
As for `c1ccc(CNc2ccc(NCCn3cncn3)c(-c3ccncc3)c2)cc1` [SS20308-0215-01, N^1-(2-(1H-1,2,4-triazol-1-yl)ethyl)-N^4-benzyl-2-(pyridin-4-yl)benzene-1,4-diamine], the IC50 was 0.07 µM and 0.09 µM at 5-LOX; 0.04 µM and 0.03 µM on 12-LOX (setting [1]).
Consider `c1ccc(CNc2ccc(NCCn3cncn3)c(-c3cccnc3)c2)cc1` [SS20308-0216-01, N^1-(2-(1H-1,2,4-triazol-1-yl)ethyl)-N^4-benzyl-2-(pyridin-3-yl)benzene-1,4-diamine], for which the results for the IC50 on 5-LOX and at 12-LOX (setting [1]) were 0.04 µM and 0.03 µM, respectively.
For the compound `c1ccc(-c2cc(NCC3CCCCC3)ccc2NCCn2cncn2)cc1` [SS20308-0217-01, N^2-(2-(1H-1,2,4-triazol-1-yl)ethyl)-N^5-(cyclohexylmethyl)-[1,1′-biphenyl]-2,5-diamine], the IC50 at 5-LOX was 0.02 µM and 0.06 µM; at 12-LOX (setting [1]), 0.02 µM and 0.04 µM.
As to `c1ccc(CNc2ccc(NCCn3cncn3)c(-c3cccs3)n2)cc1` [SS20308-0218-01, N^5-(2-(1H-1,2,4-triazol-1-yl)ethyl)-N^2-benzyl-6-(thiophen-2-yl)pyridine-2,5-diamine], the IC50 on 5-LOX came to 0.02 µM; on 12-LOX (setting [1]), 0.01 µM.
Consider `c1ccc(CNc2cnc(-c3ccccc3)c(NCCn3cncn3)c2)cc1` [SS20308-0219-01, N^3-(2-(1H-1,2,4-triazol-1-yl)ethyl)-N^5-benzyl-2-phenylpyridine-3,5-diamine], for which the IC50 at 5-LOX came out at 4.78 µM; on 12-LOX (setting [1]) it was 2.68 µM.
For the compound `c1ccc(CNc2ccc(-c3ccccc3)c(NCCn3cncn3)n2)cc1` [SS20308-0221-01, N^2-(2-(1H-1,2,4-triazol-1-yl)ethyl)-N^6-benzyl-3-phenylpyridine-2,6-diamine], the IC50 is 0.66 µM at 5-LOX and 0.11 µM on 12-LOX (setting [1]).
Regarding `c1ccc(Nc2cccc(NCCn3cncn3)c2)cc1` [SS20308-0223-01, N^1-(2-(1H-1,2,4-triazol-1-yl)ethyl)-N^3-phenylbenzene-1,3-diamine], the IC50 on 5-LOX came to 0.49 µM; at 12-LOX (setting [1]), 0.11 µM.
On to `Fc1ccc(CNc2ccc(NCCn3cncn3)c(-c3cccc4cc[nH]c34)c2)cc1` [SS20308-0225-01, N^1-(2-(1H-1,2,4-triazol-1-yl)ethyl)-N^4-(4-fluorobenzyl)-2-(1H-indol-7-yl)benzene-1,4-diamine], for which the IC50 at 5-LOX was 0.05 µM; on 12-LOX (setting [1]), 0.03 µM.
In the same order, the values of `FC(F)(F)C(Nc1ccc(NCCn2cncn2)c(-c2ccccc2)c1)c1ccccc1` (stereo not shown) [SS20308-0226-01, N^2-(2-(1H-1,2,4-triazol-1-yl)ethyl)-N^5-(2,2,2-trifluoro-1-phenylethyl)-[1,1′-biphenyl]-2,5-diamine] are 0.14 µM and 0.06 µM.
For `Fc1ccc(CNc2cc(F)c(NCCn3cncn3)c(-c3ccccc3)c2)cc1` [SS20308-0227-01, N^2-(2-(1H-1,2,4-triazol-1-yl)ethyl)-3-fluoro-N^5-(4-fluorobenzyl)-[1,1′-biphenyl]-2,5-diamine] the same measures were 0.39 µM and 0.03 µM.
In the same order, the values of `Fc1ccc(CNc2ccc(NCCn3cncn3)c(-c3ccccc3)c2F)cc1` [SS20308-0228-01, N^2-(2-(1H-1,2,4-triazol-1-yl)ethyl)-6-fluoro-N^5-(4-fluorobenzyl)-[1,1′-biphenyl]-2,5-diamine] are 0.16 µM and 0.02 µM.
Consider `Fc1ccc(CNc2cc(-c3ccccc3)c(NCCn3cncn3)cc2F)cc1` [SS20308-0229-01, N2-(2-(1H-1,2,4-triazol-1-yl)ethyl)-4-fluoro-N5-(4-fluorobenzyl)-[1,1′-biphenyl]-2,5-diamine], for which the half-inhibitory concentration (IC50) on 5-LOX was 0.08 µM and 0.26 µM; on 12-LOX (setting [1]), 0.02 µM.
Take `Fc1ccc(C(Nc2ccc(NCCn3cncn3)cc2)C(F)(F)F)cc1` (stereo not shown) [SS20308-0232-01, N^1-(2-(1H-1,2,4-triazol-1-yl)ethyl)-N^4-(2,2,2-trifluoro-1-(4-fluorophenyl)ethyl)benzene-1,4-diamine]: the figures for the 50% inhibitory concentration (IC50) at 5-LOX and at 12-LOX (setting [1]) were 0.69 µM and 0.14 µM, respectively.
As for `Fc1ccc(CNc2ccc(NCCCn3cncn3)c(F)c2)cc1` [SS20308-0236-01, N^1-(3-(1H-1,2,4-triazol-1-yl)propyl)-2-fluoro-N^4-(4-fluorobenzyl)benzene-1,4-diamine], the IC50 is 0.1 µM and 0.18 µM on 5-LOX; 0.04 µM and 0.03 µM at 12-LOX (setting [1]).
As for `Cc1ccc(NCc2ccc(F)cc2)cc1NCCCn1cncn1` [SS20308-0237-01, N^3-(3-(1H-1,2,4-triazol-1-yl)propyl)-N^1-(4-fluorobenzyl)-4-methylbenzene-1,3-diamine], the values for the IC50 on 5-LOX and on 12-LOX (setting [1]) were 0.28 µM and 0.18 µM, respectively.
As to `c1cc(NCCCn2cncn2)cc(NC2CCCCC2)c1` [SS20308-0238-01, N^1-(3-(1H-1,2,4-triazol-1-yl)propyl)-N^3-cyclohexylbenzene-1,3-diamine], the IC50 is 0.4 µM at 5-LOX and 0.17 µM at 12-LOX (setting [1]).
As to `c1ncn(CCCNc2ccc(NC3CCCCC3)cc2)n1` [SS20308-0239-01, N^1-(3-(1H-1,2,4-triazol-1-yl)propyl)-N^4-cyclohexylbenzene-1,4-diamine], the IC50 on 5-LOX is 0.04 µM and 0.07 µM; on 12-LOX it was 0.03 µM.
`c1ncn(CCCNc2ccc(NCC3CCCCC3)cc2)n1` [SS20308-0240-01, N^1-(3-(1H-1,2,4-triazol-1-yl)propyl)-N^4-(cyclohexylmethyl)benzene-1,4-diamine]: the IC50 at 5-LOX was 0.02 µM and 0.03 µM; at 12-LOX (setting [1]), 0.01 µM.
Turning to `c1cc(NCC2(Cn3cncn3)COC2)cc(NC2CCCCC2)c1` [SS20308-0241-01, N^1-((3-((1H-1,2,4-triazol-1-yl)methyl)oxetan-3-yl)methyl)-N^3-cyclohexylbenzene-1,3-diamine], the IC50 came to 1.09 µM at 5-LOX and 0.36 µM on 12-LOX (setting [1]).

For orientation: IC50 means the point on the concentration scale where inhibition reaches its midpoint.

Values taken from patent US20230117592A1 (SRI International, priority 2019, published 2023).
